# How the values were obtained:
# Assay in all cases: Competitive isoTOP-ABPP, cell lysates
# Format in all cases: binding
# [1] = molecular target: T1, AIP C122 (O00170) (Homo sapiens, UniProt O00170); conditions: for isoTOP-ABPP reactivity ratio, O00170_C122: 500 μm
# T1 sequence (O00170 1-330): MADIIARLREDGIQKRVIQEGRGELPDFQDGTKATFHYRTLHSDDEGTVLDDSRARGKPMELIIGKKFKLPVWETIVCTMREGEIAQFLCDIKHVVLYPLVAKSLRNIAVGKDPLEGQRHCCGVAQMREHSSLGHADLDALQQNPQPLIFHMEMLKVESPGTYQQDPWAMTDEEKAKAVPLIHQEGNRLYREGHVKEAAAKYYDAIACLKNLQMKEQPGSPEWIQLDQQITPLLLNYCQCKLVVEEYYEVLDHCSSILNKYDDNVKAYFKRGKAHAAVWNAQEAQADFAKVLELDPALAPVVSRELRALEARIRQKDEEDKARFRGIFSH
# [2] = molecular target: GNB2L1 C182 (P63244) (Homo sapiens, UniProt P63244); conditions: for isoTOP-ABPP ratio, P63244_C182: 500 μM, invitro
# [3] = molecular target: GSTP1 C48 (P09211) (Homo sapiens, UniProt P09211); conditions: for isoTOP-ABPP ratio, P09211_C48: 500 μM, invitro; for isoTOP-ABPP reactivity ratio, P09211_C48: 500 μm
# [4] = molecular target: T2, PDIA6 C190 (Q15084) (Homo sapiens, UniProt Q15084)
# T2 sequence (Q15084 20-440): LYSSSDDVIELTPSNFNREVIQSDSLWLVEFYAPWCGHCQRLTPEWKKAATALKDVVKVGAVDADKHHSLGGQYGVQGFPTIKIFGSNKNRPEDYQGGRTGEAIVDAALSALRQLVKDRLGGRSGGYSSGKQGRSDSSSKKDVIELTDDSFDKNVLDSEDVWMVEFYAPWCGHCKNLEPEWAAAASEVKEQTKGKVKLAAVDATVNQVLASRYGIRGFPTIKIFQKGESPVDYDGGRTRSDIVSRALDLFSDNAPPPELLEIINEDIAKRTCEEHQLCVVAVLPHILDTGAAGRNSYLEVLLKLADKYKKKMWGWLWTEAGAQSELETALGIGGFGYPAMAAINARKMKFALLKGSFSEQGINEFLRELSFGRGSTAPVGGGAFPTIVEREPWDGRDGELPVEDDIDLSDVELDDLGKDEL
# [5] = molecular target: PRMT1 C109 (Q99873) (Homo sapiens, UniProt Q99873); conditions: for isoTOP-ABPP ratio, Q99873_C109: 500 μM, invitro; for isoTOP-ABPP reactivity ratio, Q99873_C109: 500 μm
# [6] = molecular target: SAMHD1 C522 (Q9Y3Z3) (Homo sapiens, UniProt Q9Y3Z3)
# [7] = molecular target: SMARCC2 C145 (Q8TAQ2) (Homo sapiens, UniProt Q8TAQ2); conditions: for isoTOP-ABPP reactivity ratio, Q8TAQ2_C145: 500 μm
# [8] = molecular target: UBE2L3 C86 (P68036) (Homo sapiens, UniProt P68036); conditions: for isoTOP-ABPP ratio, P68036_C86: 500 μM, invitro; for isoTOP-ABPP reactivity ratio, P68036_C86: 500 μm
# [9] = molecular target: T3, UCHL3 C95 (P15374) (Homo sapiens, UniProt P15374); conditions: for isoTOP-ABPP reactivity ratio, P15374_C95: 500 μm
# T3 sequence (P15374 1-230): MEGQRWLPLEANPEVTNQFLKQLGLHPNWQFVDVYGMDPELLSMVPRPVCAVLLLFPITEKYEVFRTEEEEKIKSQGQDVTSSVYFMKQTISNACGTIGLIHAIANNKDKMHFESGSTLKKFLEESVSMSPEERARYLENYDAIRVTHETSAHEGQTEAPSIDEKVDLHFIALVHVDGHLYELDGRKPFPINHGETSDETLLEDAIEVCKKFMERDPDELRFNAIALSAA
# [10] = molecular target: ZNF217 C286 (O75362) (Homo sapiens, UniProt O75362)
compound,measurement,setting,value
O=C(CCl)N1CCN(S(=O)(=O)c2ccccc2F)CC1 [compound 10],"isoTOP-ABPP ratio, O00170_C122","[1]; 500 μM, invitro, ramos",1.7
same,"isoTOP-ABPP ratio, P63244_C182",[2]; 231,1.1
same,"isoTOP-ABPP ratio, P63244_C182",[2]; ramos,1.1
same,"isoTOP-ABPP ratio, P09211_C48",[3]; 231,1.4
same,"isoTOP-ABPP ratio, P09211_C48",[3]; ramos,0.8
same,"isoTOP-ABPP ratio, Q15084_C190","[4]; 500 μM, invitro, ramos",3.3
same,"isoTOP-ABPP ratio, Q99873_C109",[5]; 231,2.3
same,"isoTOP-ABPP ratio, Q99873_C109",[5]; ramos,1.3
same,"isoTOP-ABPP ratio, Q9Y3Z3_C522","[6]; 500 μM, invitro, 231",1.8
same,isoTOP-ABPP ratio Q8TAQ2_C145,"[7]; 500 μM, invitro, 231",4.2
same,"isoTOP-ABPP ratio, P68036_C86",[8]; 231,1.1
same,"isoTOP-ABPP ratio, P68036_C86",[8]; ramos,0.4
same,"isoTOP-ABPP ratio, P15374_C95","[9]; 500 μM, invitro, 231",2.0
same,isoTOP-ABPP ratio O75362_C286,"[10]; 500 μM, invitro, 231",1.1
Cc1ccc(C=C(C#N)C(=O)NCCN2CCOCC2)cc1 [compound 41],"isoTOP-ABPP reactivity ratio, O00170_C122",[1]; in-vitro_ramos,1.0
same,"isoTOP-ABPP reactivity ratio, O00170_C122",[1]; in-vitro_ramos_231,1.1
same,"isoTOP-ABPP reactivity ratio, P63244_C182","[2]; 500 μm, in-vitro_ramos",4.7
same,"isoTOP-ABPP reactivity ratio, P09211_C48",[3]; in-vitro_ramos,0.9
same,"isoTOP-ABPP reactivity ratio, P09211_C48",[3]; in-vitro_ramos_231,1.3
same,"isoTOP-ABPP reactivity ratio, Q15084_C190","[4]; 500 μm, in-vitro_ramos_231",1.0
same,"isoTOP-ABPP reactivity ratio, Q99873_C109",[5]; in-vitro_ramos,0.9
same,"isoTOP-ABPP reactivity ratio, Q99873_C109",[5]; in-vitro_ramos_231,0.9
same,"isoTOP-ABPP reactivity ratio, Q9Y3Z3_C522","[6]; 500 μm, in-vitro_ramos_231",0.9
same,"isoTOP-ABPP reactivity ratio, Q8TAQ2_C145",[7]; in-vitro_ramos,2.8
same,"isoTOP-ABPP reactivity ratio, Q8TAQ2_C145",[7]; in-vitro_ramos_231,1.8
same,"isoTOP-ABPP reactivity ratio, P68036_C86",[8]; in-vitro_ramos,7.9
same,"isoTOP-ABPP reactivity ratio, P68036_C86",[8]; in-vitro_ramos_231,9.8
same,"isoTOP-ABPP reactivity ratio, P15374_C95",[9]; in-vitro_ramos,0.8
same,"isoTOP-ABPP reactivity ratio, P15374_C95",[9]; in-vitro_ramos_231,1.0
same,"isoTOP-ABPP reactivity ratio, O75362_C286","[10]; 500 μm, in-vitro_ramos",0.6

# — patent publication US10670605B2, “Cysteine reactive probes and uses thereof” (The Scripps Research Institute, priority 2015, dated 2020)
